Data taken from patent publication US8691727B2, “Pesticidal compositions” (Syngenta Crop Protection, LLC, priority 2005, dated 2014).

What was measured:
F. subglutinans = assay: Agar test: seed contamination and mycelium growth on artificially infected corn seeds; type: cell-based, Fusarium subglutinans; settings: corn cv. Magister; for FUSSUB Activity Observed / FUSSUB Contaminated Seeds / FUSSUB Mycelium Growth: after 6 days
Method: (§1) An agar test is performed to evaluate the effect of seed treatments with fludioxonil (2.5 g/100 kg seed)+mefenoxam (1.0 g/100 kg seed), thiabendazole at 10, 15 and 20 g/100 kg seed and the corresponding mixtures of all three components on seed health and viability of corn. Seed lots of corn cv. Magister, is infected artificially with either F. proliferatum or F. subglutinans, are used.
(§2) Czapek-Dox medium (OXOID) is prepared according to manufacturer's recipe: 45.4 g agar in 1 l aqua bidest., autoclaved for 15 min at 121° C., and is cooled down to 55° C. 15 ml medium is poured into each petridish (Ø 10 cm) and is allowed to cool.
(§3) 10 seeds are placed on the surface of the agar. 5 replicates per treatment are done. Petridishes are placed in an incubator at 20° C. under NUV-light (12 h a day). The number of seeds where Fusarium spp. grew out on the agar is rated after an incubation period of 6 days.
(§4) • Mefenoxam (1.0 g ai/100 kg seed)+fludioxonil (2.5 g ai/100 kg seed). • Thiabendazole at 10, 15 and 20 g ai/100 kg seed. • Mefenoxam (1.0 g ai/100 kg seed)+fludioxonil (2.5 g ai/100 kg seed)+thiabendazole (at 10, 15 or 20 g ai/100 kg seed).
(§5) For combined treatments mefenoxam+fludioxonil are applied first on the seeds as a combined formulation and after drying the second application on the seeds with thiabendazole is performed.

F. proliferatum = assay: as above; type: cell-based, Fusarium proliferatum; settings: corn cv. Magister, after 6 days
Method: as §1, §2, §3, §4, §5

[1] = thiabendazole 10 g ai/100 kg seed (mixture: plus mefenoxam 1.0 g + fludioxonil 2.5 g ai/100 kg seed)
[2] = thiabendazole 15 g ai/100 kg seed (mixture: plus mefenoxam 1.0 g + fludioxonil 2.5 g ai/100 kg seed)
[3] = thiabendazole 20 g ai/100 kg seed (mixture: plus mefenoxam 1.0 g + fludioxonil 2.5 g ai/100 kg seed)

## c1ccc2[nH]c(-c3cscn3)nc2c1 [Thiabendazole, thiabendazole]
F. subglutinans; [1]
  FUSSUB Activity Observed: 32%
  FUSSUB Contaminated Seeds: 94%
  FUSSUB Mycelium Growth: 68%
F. subglutinans; [2]
  FUSSUB Activity Observed: 60%
  FUSSUB Contaminated Seeds: 100%
  FUSSUB Mycelium Growth: 40%
F. subglutinans; [3]
  FUSSUB Activity Observed: 91%
  FUSSUB Contaminated Seeds: 52%
  FUSSUB Mycelium Growth: 9%
F. subglutinans; thiabendazole at 10, 15 and 20 g ai/100 kg seed
  Mycelium growth, dose response (in words): linear dose response
F. proliferatum; [1]
  FUSPRO Activity Observed: 40%
  FUSPRO Contaminated Seeds: 62%
  FUSPRO Mycelium Growth: ~60%
F. proliferatum; [2]
  FUSPRO Contaminated Seeds: 44%
F. proliferatum; [3]
  FUSPRO Contaminated Seeds: 40%
F. proliferatum; thiabendazole 20 g ai/100 kg seed (mixture: plus mefenoxam 1.0 g + fludioxonil 2.5 g ai/100 kg seed), listed as thiabendazole
  FUSPRO Contaminated Seeds: reduces the number of Fusarium infected seeds
